Source: ChEMBL document CHEMBL3044779, “The action of herbicides on fatty acid biosynthesis and elongation in barley and cucumber” (Pest Manag Sci, 2010)
pIC50: −log10 of the molar value.

Columns and labels:
Hordeum vulgare [1] = assay: Inhibition of fatty acid synthesis in Hordeum vulgare (barley) using [14C]malonate assessed as [14C]-labeled 20C fatty acid level at 1 uM after 3 hr by liquid scintillation counting (reference value: 6.1 +/- 0.5%); format: functional; set-up: scale not given: the % may be the effect or the level left
Hordeum vulgare [2] = assay: Inhibition of fatty acid synthesis in Hordeum vulgare (barley) using [14C]malonate assessed as [14C]-labeled 18C fatty acid level at 1 uM after 3 hr by liquid scintillation counting (reference value: 30.3 +/- 2.9%); format: functional; set-up: scale not given: the % may be the effect or the level left
Hordeum vulgare [3] = assay: Inhibition of fatty acid synthesis in Hordeum vulgare (barley) using [14C]acetate assessed as [14C]-labeled 18C fatty acid level at 1 uM after 3 hr by liquid scintillation counting (reference value: 42.6 +/- 2.4%); format: functional; set-up: scale not given: the % may be the effect or the level left
Cucumis sativus [4] = assay: Inhibition of fatty acid synthesis in Cucumis sativus (cucumber) using [14C]acetate assessed as [14C]-labeled 18C fatty acid level at 100 uM after 3 hr by liquid scintillation counting (reference value: 43.9 +/- 3.6%); format: functional; set-up: scale not given: the % may be the effect or the level left
Cucumis sativus [5] = assay: Inhibition of fatty acid synthesis in Cucumis sativus (cucumber) assessed as inhibition of [14C]acetate incoporation in total fatty acids at 100 uM measured as total disintegration per g of fresh weight after 3 hr by liquid scintillation counting (reference value: 9.2 +/- 2.1 dpm x 10^6 g'1 fresh wt); format: functional
Hordeum vulgare [6] = assay: Inhibition of fatty acid synthesis in Hordeum vulgare (barley) using [14C]acetate assessed as [14C]-labeled 22C fatty acid level at 1 uM after 3 hr by liquid scintillation counting (reference value: 16.6 +/- 0.6%); format: functional; set-up: scale not given: the % may be the effect or the level left
Hordeum vulgare [7] = assay: Inhibition of fatty acid synthesis in Hordeum vulgare (barley) using [14C]malonate assessed as [14C]-labeled 22C fatty acid level at 1 uM after 3 hr by liquid scintillation counting (reference value: 26.7 +/- 2.6%); format: functional; set-up: scale not given: the % may be the effect or the level left
Hordeum vulgare [8] = assay: Inhibition of fatty acid synthesis in Hordeum vulgare (barley) using [14C]malonate assessed as [14C]-labeled 16C fatty acid level at 1 uM after 3 hr by liquid scintillation counting (reference value: 8.7 +/- 0.2%); format: functional; set-up: scale not given: the % may be the effect or the level left
Cucumis sativus [9] = assay: Inhibition of fatty acid synthesis in Cucumis sativus (cucumber) using [14C]acetate assessed as [14C]-labeled 20C fatty acid level at 100 uM after 3 hr by liquid scintillation counting (reference value: 14.7 +/- 0.6%); format: functional; set-up: scale not given: the % may be the effect or the level left
Cucumis sativus [10] = assay: Inhibition of fatty acid synthesis in Cucumis sativus (cucumber) using [14C]acetate assessed as [14C]-labeled 16C fatty acid level at 100 uM after 3 hr by liquid scintillation counting (reference value: 31 +/- 2.8%); format: functional; set-up: scale not given: the % may be the effect or the level left
Hordeum vulgare [11] = assay: Inhibition of fatty acid synthesis in Hordeum vulgare (barley) assessed as inhibition of [14C]acetate incoporation in total fatty acids at 1 uM measured as total disintegration per g of fresh weight after 3 hr by liquid scintillation counting (reference value: 4.6 +/- 1.2 dpm x 10^6 g'1 fresh wt); format: functional
Hordeum vulgare [12] = assay: Inhibition of fatty acid synthesis in Hordeum vulgare (barley) using [14C]acetate assessed as [14C]-labeled 16C fatty acid level at 1 uM after 3 hr by liquid scintillation counting (reference value: 23.3 +/- 0.2%); format: functional; set-up: scale not given: the % may be the effect or the level left
Hordeum vulgare [13] = assay: Inhibition of fatty acid synthesis in Hordeum vulgare (barley) using [14C]malonate assessed as [14C]-labeled 24C fatty acid level at 1 uM after 3 hr by liquid scintillation counting (reference value: 20.7 +/- 1.8%); format: functional; set-up: scale not given: the % may be the effect or the level left
Hordeum vulgare [14] = assay: Inhibition of fatty acid synthesis in Hordeum vulgare (barley) using [14C]acetate assessed as [14C]-labeled 20C fatty acid level at 1 uM after 3 hr by liquid scintillation counting (reference value: 6.6 +/- 2.3%); format: functional; set-up: scale not given: the % may be the effect or the level left
Acetyl-CoA carboxylase [15] = target: T1, Acetyl-CoA carboxylase (Zea mays, UniProt Q3V4E6); assay: Inhibition of Zea mays (maize) chloroplastic ACCase using acetyl-coA as substrate assessed as inhibition of [14C]NaHCO3 incorporation into malonyl-coA incubated for 10 min prior to substrate addition measured for 20 min by liquid scintillation counting
T1 sequence (Q3V4E6 whole entry): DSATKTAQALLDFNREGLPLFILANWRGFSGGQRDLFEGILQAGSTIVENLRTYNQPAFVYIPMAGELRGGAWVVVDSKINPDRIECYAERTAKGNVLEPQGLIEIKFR

Hordeum vulgare [16] = assay: Inhibition of fatty acid synthesis in Hordeum vulgare (barley) using [14C]malonate assessed as [14C]-labeled 26C fatty acid level at 1 uM after 3 hr by liquid scintillation counting (reference value: 7.6 +/- 1.8%); format: functional; set-up: scale not given: the % may be the effect or the level left
Hordeum vulgare [17] = assay: Inhibition of fatty acid synthesis in Hordeum vulgare (barley) using [14C]acetate assessed as [14C]-labeled 24C fatty acid level at 1 uM after 3 hr by liquid scintillation counting (reference value: 11 +/- 0.8%); format: functional; set-up: scale not given: the % may be the effect or the level left
Acetyl-CoA carboxylase [18] = target: T1, Acetyl-CoA carboxylase; assay: Inhibition of Zea mays (maize) cytosolic ACCase using acetyl-coA as substrate assessed as inhibition of [14C]NaHCO3 incorporation into malonyl-coA incubated for 10 min prior to substrate addition measured for 20 min by liquid scintillation counting
Hordeum vulgare [19] = assay: Inhibition of fatty acid synthesis in Hordeum vulgare (barley) assessed as inhibition of [14C]malonate incoporation in total fatty acids at 1 uM measured as total disintegration per g of fresh weight after 3 hr by liquid scintillation counting (reference value: 5.4 +/- 0.9 1 dpm x 10^6 g'1 fresh wt); format: functional
Cucumis sativus [20] = assay: Inhibition of fatty acid synthesis in Cucumis sativus (cucumber) using [14C]acetate assessed as [14C]-labeled 22C fatty acid level at 100 uM after 3 hr by liquid scintillation counting (reference value: 10.2 +/-1.6%); format: functional; set-up: scale not given: the % may be the effect or the level left

Q: `CCc1cc(C)cc(CC)c1C1C(=O)N2CCOCCN2C1=O` [PINOXADEN DIONE] was tested. Which Activity (Hordeum vulgare [1]) did it give?
A: 7.7%

Q: And the Activity (Hordeum vulgare [2])?
A: 8.3%

Q: What about the Activity (Hordeum vulgare [3]) of the same compound?
A: 18.1%

Q: And the Activity (Cucumis sativus [4])?
A: 47.4%

Q: What about the Activity (Cucumis sativus [5]) of the same compound?
A: 9.2 ×10⁶ dpm

Q: And the Activity (Hordeum vulgare [6])?
A: 32.7%

Q: And the Activity (Hordeum vulgare [7])?
A: 41.9%

Q: What about the Activity (Hordeum vulgare [8]) of the same compound?
A: 0.5%

Q: And the Activity (Cucumis sativus [9])?
A: 10.1%

Q: And the Activity (Cucumis sativus [10])?
A: 30.4%

Q: What about the Activity (Hordeum vulgare [11]) of the same compound?
A: 2.8 ×10⁶ dpm

Q: What about the Activity (Hordeum vulgare [12]) of the same compound?
A: 3.1%

Q: And the Activity (Hordeum vulgare [13])?
A: 27.7%

Q: What about the Activity (Hordeum vulgare [14]) of the same compound?
A: 3.6%

Q: What about the pIC50 (Acetyl-CoA carboxylase [15]) of the same compound?
A: 6.96

Q: What about the Activity (Hordeum vulgare [16]) of the same compound?
A: 13.8%

Q: What about the Activity (Hordeum vulgare [17]) of the same compound?
A: 32.6%

Q: And the pIC50 (Acetyl-CoA carboxylase [18])?
A: 4.77

Q: What about the Activity (Hordeum vulgare [19]) of the same compound?
A: 5.1 ×10⁶ dpm

Q: And the Activity (Cucumis sativus [20])?
A: 11.9%
